Test results from US4261883A (priority 1979, dated 1981).
Where two headings read alike, the source gives them in different places.

Legend:
[1] = tested on: guinea pig ileum; test: guinea pig ileum test (inhibition of voltage induced contractions); format: cell-based; settings: read-out: I.D.50 in the guinea pig ileum test
[2] = tested on: opioid receptors in caudate nuclei homogenate S4e; test: affinity labeling of opiate receptor sites by irradiation of azido compounds, caudate nuclei homogenate S4e; format: binding, bovine; settings: normorphine hydrochloride added before the azide and irradiation

Q: For (D-ala^ 2)met-enkephalinamide, which IC50 [1] is on record?
A: 12 nM

Q: `Oc1ccc2c3c1O[C@H]1[C@@H](O)C=C[C@H]4[C@@H](C2)NCC[C@@]341` [normorphine] was tested. Which “effect on the deactivation of the opioid receptors by the azide compounds” value [2] did it give?
A: inhibit the deactivation of the opioid receptors

Q: And the IC50 ([1]; Cavia porcellus)?
A: 120 nM
